# Experiments:
# [1] = tested on: relapsed/refractory AML patient with an acquired FLT3-ITD mutation; assay: Crenolanib besylate monotherapy, Example 4 patient, phase II clinical trial NCT01522469; format: in vivo, human
# Description: (§1) Response criteria for AML clinical trials are adapted from the International Working Group for AML. See Cheson et al. Revised Recommendations of the International Working Group for Diagnosis, Standardization of Response Criteria, Treatment Outcomes, and Reporting Standards for Therapeutic Trials in Acute Myeloid Leukemia. J Clin Oncol. 2003; 21: 4642-4649. Responders are patients who obtain a Complete Response (CR), Complete Response with incomplete blood count recovery (CRi), or Partial Remission (PR). Briefly, criteria are as follows:
# A 60.6 kg person diagnosed with FLT3-negative AML January 2012. […] The patient was then treated with 4 cycles of high dose cytarabine consolidation therapy. […] The patient was treated with 100 mg of crenolanib besylate three times daily. […] The patient discontinued crenolanib therapy and underwent allogeneic stem cell transplant.
# [2] = tested on: relapsed/refractory AML patient with a de novo FLT3-ITD mutation and acquired FLT3-D835 TKD mutation; assay: Crenolanib besylate single agent therapy, Example 2 patient, clinical trial NCT01522469; format: in vivo, human
# Description: as §1
# To overcome resistance to prior therapy with FLT3 tyrosine kinase inhibitor X, the patient was provided single agent oral crenolanib besylate on a clinical trial for relapsed or refractory AML patients with a FLT3-D835 mutation (NCT01522469). At baseline, the patient presented with 91% bone marrow blasts and 4800 units/uL of absolute circulating peripheral blood blasts. The patient began treatment with 80 mg of oral crenolanib three times daily. […] The patient discontinued crenolanib therapy and underwent allogeneic stem cell transplant.
# [3] = tested on: heavily pretreated relapsed/refractory AML patient with acquired FLT3-ITD and FLT3-D835 TKD mutations; assay: Crenolanib besylate monotherapy, Example 3 patient, phase II clinical trial NCT01522469; format: in vivo, human
# Description: as §1
# A 59.2 kg person diagnosed with AML December 2011. Following initial diagnosis the patient was treated with 7+3 induction chemotherapy, followed by consolidation therapy with 1 cycle of high dose cytarabine. Five months later the patient underwent autologous stem cell transplantation with etoposide and busulfan conditioning. […] The patient was treated with 100 mg of crenolanib besylate three times daily. […] The patient discontinued crenolanib therapy to undergo allogeneic stem cell transplantation conditioning. The patient discontinued crenolanib therapy and underwent allogeneic stem cell transplant.
# [4] = tested on: relapsed/refractory AML patient with a de novo FLT3-ITD mutation and acquired FLT3-D835 TKD mutation; assay: Crenolanib besylate single agent therapy, Example 1 patient, clinical trial NCT01522469; format: in vivo, human
# Description: as §1
# To overcome resistance to prior therapy, the patient was provided single agent oral crenolanib besylate on a clinical trial for relapsed or refractory AML patients with a FLT3-D835 TKD mutation (NCT01522469). […] The patient began treatment with 100 mg of oral crenolanib three times daily. […] The patient discontinued crenolanib therapy and underwent allogeneic stem cell transplant.
# [5] = tested on: refractory or relapsed acute leukemias; details: patients with refractory or relapsed acute leukemias; cited from earlier work
# [6] = day 15 on study drug, 100 mg three times daily
# [7] = day 29 on study drug, 100 mg three times daily
# [8] = day 58 on study drug, 100 mg three times daily
# [9] = day 21 on study drug, 80 mg oral three times daily
# [10] = day 33 on study drug, 100 mg three times daily
smiles,measurement,setting,value
"CC1(COc2ccc3c(c2)ncn3-c2ccc3cccc(N4CCC(N)CC4)c3n2)COC1 [Crenolanib, 4-Piperidinamine, 1-[2-[5-[(3-methyl-3-oxetanyl)methoxy]-1H-benzimidazol-1-yl]-8-quinolinyl]]",Days of therapy to complete clearance of malignant leukemic blasts in peripheral blood,[1]; 100 mg three times daily,15 days
same,Clinical response (bone marrow biopsy),"[1]; after 29 days of therapy, 100 mg three times daily",complete remission with incomplete blood count recovery (CRi)
same,Absolute Peripheral Blast Count (cells/uL),[1]; day 0 on study drug (baseline),198 cells/uL
same,Bone Marrow Blast (%),[1]; day 0 on study drug (baseline),76%
same,Absolute Peripheral Blast Count (cells/uL),"[1]; day 1 on study drug, 100 mg three times daily",130 cells/uL
same,Absolute Peripheral Blast Count (cells/uL),"[1]; day 8 on study drug, 100 mg three times daily",19 cells/uL
same,Absolute Peripheral Blast Count (cells/uL),[1]; [6],0 cells/uL
same,Absolute Peripheral Blast Count (cells/uL),"[1]; day 22 on study drug, 100 mg three times daily",0 cells/uL
same,Absolute Peripheral Blast Count (cells/uL),[1]; [7],0 cells/uL
same,Bone Marrow Blast (%),[1]; [7],1%
same,Absolute Peripheral Blast Count (cells/uL),[1]; [8],0 cells/uL
same,Bone Marrow Blast (%),[1]; [8],1%
same,Days of therapy to complete clearance of malignant leukemic blasts in peripheral blood,[2]; 80 mg oral three times daily,14 days
same,Bone Marrow Blast (%),[2]; day 0 on study drug (baseline),91%
same,Absolute Peripheral Blast Count (units/uL),"[2]; day 1 on study drug (baseline value), 80 mg oral three times daily",4800 units/uL
same,Absolute Peripheral Blast Count (units/uL),"[2]; day 3 on study drug, 80 mg oral three times daily",2747 units/uL
same,Absolute Peripheral Blast Count (units/uL),"[2]; day 4 on study drug, 80 mg oral three times daily",250 units/uL
same,Absolute Peripheral Blast Count (units/uL),"[2]; day 7 on study drug, 80 mg oral three times daily",49 units/uL
same,Absolute Peripheral Blast Count (units/uL),"[2]; day 9 on study drug, 80 mg oral three times daily",35 units/uL
same,Absolute Peripheral Blast Count (units/uL),"[2]; day 14 on study drug, 80 mg oral three times daily",0 units/uL
same,Absolute Peripheral Blast Count (units/uL),[2]; [9],0 units/uL
same,Bone Marrow Blast (%),[2]; [9],32%
same,Absolute Peripheral Blast Count (units/uL),"[2]; day 28 on study drug, 80 mg oral three times daily",0 units/uL
same,Bone Marrow Blast (%),"[2]; day 35 on study drug, 80 mg oral three times daily",2%
same,Absolute Peripheral Blast Count (units/uL),"[2]; day 37 on study drug, 80 mg oral three times daily",0 units/uL
same,Absolute Peripheral Blast Count (units/uL),"[2]; day 38 on study drug, 80 mg oral three times daily",0 units/uL
same,Absolute Peripheral Blast Count (units/uL),"[2]; day 39 on study drug, 80 mg oral three times daily",0 units/uL
same,Absolute Peripheral Blast Count (units/uL),"[2]; day 40 on study drug, 80 mg oral three times daily",0 units/uL
same,Absolute Peripheral Blast Count (units/uL),"[2]; day 41 on study drug, 80 mg oral three times daily",0 units/uL
same,Absolute Peripheral Blast Count (units/uL),"[2]; day 42 on study drug, 80 mg oral three times daily",0 units/uL
same,Absolute Peripheral Blast Count (units/uL),"[2]; day 43 on study drug, 80 mg oral three times daily",0 units/uL
same,Absolute Peripheral Blast Count (units/uL),"[2]; day 45 on study drug, 80 mg oral three times daily",0 units/uL
same,Absolute Peripheral Blast Count (units/uL),"[2]; day 46 on study drug, 80 mg oral three times daily",0 units/uL
same,Absolute Peripheral Blast Count (units/uL),"[2]; day 47 on study drug, 80 mg oral three times daily",0 units/uL
same,Absolute Peripheral Blast Count (units/uL),"[2]; day 48 on study drug, 80 mg oral three times daily",0 units/uL
same,Absolute Peripheral Blast Count (units/uL),"[2]; day 49 on study drug, 80 mg oral three times daily",0 units/uL
same,Absolute Peripheral Blast Count (units/uL),"[2]; day 50 on study drug, 80 mg oral three times daily",0 units/uL
same,Absolute Peripheral Blast Count (units/uL),"[2]; day 51 on study drug, 80 mg oral three times daily",0 units/uL
same,Absolute Peripheral Blast Count (units/uL),"[2]; day 52 on study drug, 80 mg oral three times daily",0 units/uL
same,Bone Marrow Blast (%),"[2]; day 65 on study drug, 80 mg oral three times daily",4-5%
same,Absolute Peripheral Blast Count (units/uL),"[2]; day 69 on study drug, 80 mg oral three times daily",0 units/uL
same,Clinical response (bone marrow biopsy),"[2]; over the course of 65 days of therapy, 80 mg oral three times daily",complete remission with incomplete blood count recovery (CRi)
same,Days of therapy to complete clearance of malignant leukemic blasts in peripheral blood,[3]; 100 mg three times daily,15 days
same,Clinical response (bone marrow biopsy),"[3]; after 33 days of therapy, 100 mg three times daily",complete remission with incomplete blood count recovery (CRi)
same,Absolute Peripheral Blast Count (units/uL),[3]; day 0 on study drug (baseline),196 units/uL
same,Bone Marrow Blast (%),[3]; day 0 on study drug (baseline),60-70%
same,Absolute Peripheral Blast Count (units/uL),"[3]; day 14 on study drug, 100 mg three times daily",14 units/uL
same,Absolute Peripheral Blast Count (units/uL),[3]; [6],0 units/uL
same,Absolute Peripheral Blast Count (units/uL),"[3]; day 16 on study drug, 100 mg three times daily",0 units/uL
same,Absolute Peripheral Blast Count (units/uL),"[3]; day 17 on study drug, 100 mg three times daily",0 units/uL
same,Absolute Peripheral Blast Count (units/uL),"[3]; day 18 on study drug, 100 mg three times daily",0 units/uL
same,Bone Marrow Blast (%),"[3]; day 27 on study drug, 100 mg three times daily",10%
same,Absolute Peripheral Blast Count (units/uL),"[3]; day 28 on study drug, 100 mg three times daily",0 units/uL
same,Absolute Peripheral Blast Count (units/uL),[3]; [7],0 units/uL
same,Absolute Peripheral Blast Count (units/uL),"[3]; day 31 on study drug, 100 mg three times daily",0 units/uL
same,Absolute Peripheral Blast Count (units/uL),"[3]; day 32 on study drug, 100 mg three times daily",0 units/uL
same,Absolute Peripheral Blast Count (units/uL),[3]; [10],0 units/uL
same,Bone Marrow Blast (%),[3]; [10],5%
same,Absolute Peripheral Blast Count (units/uL),"[3]; day 39 on study drug, 100 mg three times daily",0 units/uL
same,Absolute Peripheral Blast Count (units/uL),"[3]; day 42 on study drug, 100 mg three times daily",0 units/uL
same,Absolute Peripheral Blast Count (units/uL),"[3]; day 44 on study drug, 100 mg three times daily",0 units/uL
same,Absolute Peripheral Blast Count (units/uL),"[3]; day 45 on study drug, 100 mg three times daily",0 units/uL
same,Absolute Peripheral Blast Count (units/uL),"[3]; day 46 on study drug, 100 mg three times daily",0 units/uL
same,Absolute Peripheral Blast Count (units/uL),"[3]; day 47 on study drug, 100 mg three times daily",0 units/uL
same,Absolute Peripheral Blast Count (units/uL),"[3]; day 48 on study drug, 100 mg three times daily",0 units/uL
same,Absolute Peripheral Blast Count (units/uL),"[3]; day 49 on study drug, 100 mg three times daily",0 units/uL
same,Absolute Peripheral Blast Count (units/uL),"[3]; day 50 on study drug, 100 mg three times daily",0 units/uL
same,Absolute Peripheral Blast Count (units/uL),"[3]; day 51 on study drug, 100 mg three times daily",0 units/uL
same,Absolute Peripheral Blast Count (units/uL),"[3]; day 52 on study drug, 100 mg three times daily",0 units/uL
same,Clinical response (bone marrow biopsy),"[4]; after 29 days of therapy, 100 mg, decreased to 80 mg, oral three times daily",complete remission (CR)
same,Bone Marrow Blast (%),[4]; day 0 on study drug (baseline),75%
same,Bone Marrow Blast (%),"[4]; day 29 on study drug, 100 mg, decreased to 80 mg, oral three times daily",0%
same,Bone Marrow Blast (%),"[4]; day 57 on study drug, 100 mg, decreased to 80 mg, oral three times daily",1%
CNC(=O)c1cc(Oc2ccc(NC(=O)Nc3ccc(Cl)c(C(F)(F)F)c3)cc2)ccn1 [sorafenib],Effect on bone marrow (BM) blasts,[5],only modest BM blast reductions
same,Effect on peripheral blood (PB) blasts,[5],effective in clearing PB blasts

# — US12171757B2, “Crenolanib for treating FLT3 mutated proliferative disorders” (Arog Pharmaceuticals, Inc., priority 2013, dated 2024)
